Assays:
[1] = tested on: Arabidopsis thaliana Columbia-0; experiment: Root hair number and length quantification, Arabidopsis vertical plate; assay type: in vivo
Procedure: (§1) All Arabidopsis plant experiments were performed using the Arabidopsis thaliana Columbia-0 background. The Arabidopsis pSPX1::GUS line is described in the […] 2008, 54: 965-975. For rice, the cultivar Nipponbare was used. For maize, the cultivars DKC 2931 and 8104 were used for regular pot experiments and sand-based pot experiments, respectively. For soybean, the cultivar Primus was used. […] The medium was solidified due to the addition of 0.6% Gelrite, unless stated otherwise. In case of vertical plates (root length and root hair measurements), the medium was supplied with 0.5% of sucrose and 1 μM (low phosphate, 1 μM KH2PO4, 9.9 mM KCl), 10 μM (low phosphate 10 μM KH2PO4, 9.9 mM KCl) or 1.25 mM KH2PO4 (high phosphate). Arabidopsis seeds were stratified for 2 days at 4° C. before germination. Seedlings were germinated in climate-controlled growth chambers at 22° C. under continuous light ([…] m^−2 s^−1). Husked rice seeds were germinated on wetted Whatman paper for 2 days at 37° C. and then transferred to Sterivent boxes or square Petri dishes with solid medium. Maize and soybean seeds were wetted 24 hours at room temperature prior to sowing in pots.
Roots were imaged using a stereomicroscope or a VHX-6000. Number and length of the root hairs parallel to the medium surface was determined at 4 to 6 mm above the root meristem. Root hair length was measured using the ImageJ software.

maize cultivar 8104 = experiment: Sand-based maize pot experiment; assay type: in vivo; settings: low phosphate, 10 μM compound
Procedure: as §1
Regular Arabidopsis, soybean and maize pot experiments used an unfertilized potting soil, which was supplemented at the start of the experiment with 50 ml H2O containing 0.25 g/l NH4NO3 and 0.44 g/l (high phosphate) or no (maize and soybean) or 0.11 g/l KH2PO (Arabidopsis) for low phosphate conditions. For the sand-based maize pot experiment, sand was supplemented with 50 ml H2O containing 0.25 g/l NH4NO3 and 0.38 g/l (high phosphate) or 0.02 g/l (low phosphate) KH2PO4. Potassium was balanced via addition of KCl. Compound concentration was 10 μM, calculated based on the total water content after watering, and was added at the start of the experiment (Arabidopsis) or once a week (maize). Indexed chlorophyll contents were received via a SPAD 502 Plus Chlorophyll Meter. All parameters in the sand experiment, except the rate of leaf 4 (measured the first 4 days after emergence), were measured 19 days after sowing. Measurements in the pot experiments with potting soil were done after 4 weeks of growth, except for leaf 5, which was measured at 26 days. The long term maize pot experiment was performed on the automated Phenovision platform (see Mertens et al, 2021, https://doi.org/10.3389/fpls.2021.640914) with maize cultivars B104 and DKC2931. End point measurements occurred after 90 days (B104) or 70 days (DKC2931). Plants were grown on an unfertilized potting soil, which was fertilized bi-weekly with 50 mL modified Hoagland solution (2.5× concentrated; but with 0.25 mM KH2PO4).

[2] = Arabidopsis vertical plate, high phosphate

SMILES: CCN(CCCNc1ncnc2nc(N)ccc12)c1ccccc1 [Example 1]
- activity at 1 µM ([1]; Arabidopsis thaliana, 1 μM compound, read-out: Total root hair length per root (in % compared to the control)): 749%
- Average root hair length per root in high phosphate conditions [1, 2]: 0.26 mm
- Root hair number in high phosphate conditions (one plane in 2 mm region) [1, 2]: 9
- Total root hair length per root in high phosphate conditions [1, 2]: 0.26 cm
- Crown root number (maize cultivar 8104; 19 days after sowing): 8
- Plant height (maize cultivar 8104; 19 days after sowing): 27 cm
- Indexed chlorophyll content (maize cultivar 8104; SPAD meter, 19 days after sowing): 31
- Growth rate of leaf 4 (maize cultivar 8104; first 4 days after emergence): 2.64 cm/day

Reference: US20240306641A1, “P-BOOSTER” (EUROCHEM ANTWERPEN, priority 2021, published 2024)
